ChEMBL document CHEMBL1909046, “DrugMatrix in vitro pharmacology data”

Experiments:
[1] = biological target: T1, Alpha-2A adrenergic receptor (Homo sapiens, UniProt P08913); type: cell membranes, Sf9, Membrane; conditions: sf9; also: in other assays of this panel Not Active means under 50% inhibition at 10 µM
T1 sequence (P08913 whole entry): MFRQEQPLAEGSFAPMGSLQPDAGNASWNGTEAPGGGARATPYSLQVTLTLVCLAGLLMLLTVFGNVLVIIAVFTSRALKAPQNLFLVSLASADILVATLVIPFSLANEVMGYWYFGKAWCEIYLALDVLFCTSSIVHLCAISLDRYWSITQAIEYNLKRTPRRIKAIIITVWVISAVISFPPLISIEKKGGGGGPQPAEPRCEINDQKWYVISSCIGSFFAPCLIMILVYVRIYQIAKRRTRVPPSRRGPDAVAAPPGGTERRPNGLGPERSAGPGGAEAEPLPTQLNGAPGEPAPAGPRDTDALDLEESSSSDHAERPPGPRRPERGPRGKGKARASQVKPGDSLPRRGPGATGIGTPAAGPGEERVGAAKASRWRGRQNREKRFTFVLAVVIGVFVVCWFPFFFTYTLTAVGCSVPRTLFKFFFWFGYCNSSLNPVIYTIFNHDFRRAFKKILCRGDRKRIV

Carbonic anhydrase 2 = Carbonic anhydrase 2 (Homo sapiens, UniProt P00918); assay: DRUGMATRIX: Carbonic Anhydrase II enzyme inhibition (substrate: 4-Nitrophenyl acetate (4-NPA)); type: tissue-based, Erythrocyte; conditions: erythrocyte; Not Active = under 50% inhibition at 10 µM
Histamine H2 receptor = Histamine H2 receptor (Homo sapiens, UniProt P25021); type: cell membranes, CHO-K1, Membrane; conditions: cho-k1; also: in other assays of this panel Not Active means under 50% inhibition at 10 µM
[2] = biological target: T2, Muscarinic acetylcholine receptor M4 (Homo sapiens, UniProt P08173); type: cell membranes, CHO-K1, Membrane; conditions: cho-k1; also: in other assays of this panel Not Active means under 50% inhibition at 10 µM
T2 sequence (P08173 whole entry): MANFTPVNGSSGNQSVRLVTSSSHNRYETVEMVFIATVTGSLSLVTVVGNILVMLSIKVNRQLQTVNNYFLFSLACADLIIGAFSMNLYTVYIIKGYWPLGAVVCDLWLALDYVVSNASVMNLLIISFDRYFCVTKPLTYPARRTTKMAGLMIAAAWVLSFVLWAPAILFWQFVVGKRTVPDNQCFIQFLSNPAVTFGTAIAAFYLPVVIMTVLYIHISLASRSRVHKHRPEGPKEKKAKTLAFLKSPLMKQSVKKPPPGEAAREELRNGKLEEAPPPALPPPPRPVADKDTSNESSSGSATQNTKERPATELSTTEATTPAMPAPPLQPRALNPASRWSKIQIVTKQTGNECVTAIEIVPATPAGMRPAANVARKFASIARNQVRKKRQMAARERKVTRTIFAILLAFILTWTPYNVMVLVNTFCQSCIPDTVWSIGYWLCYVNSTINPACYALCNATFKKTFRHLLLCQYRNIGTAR

[3] = biological target: T3, Muscarinic acetylcholine receptor M5 (Homo sapiens, UniProt P08912); type: cell membranes, CHO-K1, Membrane; conditions: cho-k1; also: in other assays of this panel Not Active means under 50% inhibition at 10 µM
T3 sequence (P08912 whole entry): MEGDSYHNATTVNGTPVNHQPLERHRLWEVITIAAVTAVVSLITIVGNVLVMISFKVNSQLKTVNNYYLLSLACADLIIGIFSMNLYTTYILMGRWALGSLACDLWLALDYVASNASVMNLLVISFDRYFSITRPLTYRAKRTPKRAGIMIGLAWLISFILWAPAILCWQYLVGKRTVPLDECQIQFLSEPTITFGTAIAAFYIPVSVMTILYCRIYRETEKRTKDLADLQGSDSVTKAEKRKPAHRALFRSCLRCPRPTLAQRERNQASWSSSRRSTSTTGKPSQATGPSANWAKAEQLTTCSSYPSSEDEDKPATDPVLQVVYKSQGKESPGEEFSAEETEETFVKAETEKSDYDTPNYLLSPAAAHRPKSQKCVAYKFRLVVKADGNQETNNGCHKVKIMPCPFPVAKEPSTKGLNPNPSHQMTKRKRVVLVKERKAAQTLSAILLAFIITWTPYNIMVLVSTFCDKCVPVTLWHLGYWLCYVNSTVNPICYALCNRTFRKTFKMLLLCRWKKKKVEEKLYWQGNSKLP

Measured: IC50

Chain of Histamine H2 receptor (P25021 whole entry): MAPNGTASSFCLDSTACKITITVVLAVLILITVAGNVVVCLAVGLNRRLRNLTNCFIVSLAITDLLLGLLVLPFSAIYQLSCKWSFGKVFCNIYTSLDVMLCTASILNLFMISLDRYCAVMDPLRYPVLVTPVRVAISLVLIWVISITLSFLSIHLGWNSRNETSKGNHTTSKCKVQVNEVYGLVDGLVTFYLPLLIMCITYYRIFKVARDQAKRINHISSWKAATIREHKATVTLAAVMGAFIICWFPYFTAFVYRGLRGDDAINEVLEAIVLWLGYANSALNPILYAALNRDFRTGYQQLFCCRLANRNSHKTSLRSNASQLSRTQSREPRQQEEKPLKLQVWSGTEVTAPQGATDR

COCCc1ccc(OCC(O)CNC(C)C)cc1 (stereo not drawn) [METOPROLOL]
Not Active: [1] | Carbonic anhydrase 2 | Histamine H2 receptor | [2] | [3]

COc1cc2nc(N3CCN(C(=O)C4COc5ccccc5O4)CC3)nc(N)c2cc1OC (stereo not drawn) [DOXAZOSIN]
Not Active: [1] | Carbonic anhydrase 2 | Histamine H2 receptor | [2] | [3]

NCCCCCC(=O)O [AMINOCAPROIC ACID]
Not Active: [1] | Carbonic anhydrase 2 | Histamine H2 receptor | [2] | [3]

CC(C)(C)NCC(O)c1cc(Cl)c(N)c(Cl)c1 (stereo not drawn) [CLENBUTEROL]
Not Active: [1] | Carbonic anhydrase 2 | Histamine H2 receptor | [2] | [3]

CCCN1C[C@H](CSC)C[C@@H]2c3cccc4[nH]cc(c34)C[C@H]21 [PERGOLIDE]
Not Active: Carbonic anhydrase 2 | Histamine H2 receptor | [2] | [3]

CN(C)C(=O)Oc1cc(OC(=O)N(C)C)cc(C(O)CNC(C)(C)C)c1 (stereo not drawn) [BAMBUTEROL]
Not Active: [1] | Carbonic anhydrase 2 | Histamine H2 receptor | [2] | [3]

c1ccc(Nc2ccc(Nc3ccccc3)cc2)cc1
Not Active: [1] | Carbonic anhydrase 2 | Histamine H2 receptor | [2] | [3]

Cc1cc(C(C#N)c2ccc(Cl)cc2)c(Cl)cc1NC(=O)c1cc(I)cc(I)c1O (stereo not drawn) [CLOSANTEL]
Not Active: [1] | Carbonic anhydrase 2 | Histamine H2 receptor | [2] | [3]

Cc1ccc2cc3c(ccc4ccccc43)c3c2c1CC3 [3-METHYLCHOLANTHRENE]
Not Active: [1] | Carbonic anhydrase 2 | Histamine H2 receptor | [2] | [3]

Nc1nc2c(ncn2CCC(CO)CO)c(=O)[nH]1 [PENCICLOVIR]
Not Active: [1] | Carbonic anhydrase 2 | Histamine H2 receptor | [2] | [3]

CC1Cc2ccccc2N1NC(=O)c1ccc(Cl)c(S(N)(=O)=O)c1 (stereo not drawn) [INDAPAMIDE]
Not Active: [1] | Carbonic anhydrase 2 | Histamine H2 receptor | [2] | [3]

Cc1ccc(-c2cc(C(F)(F)F)nn2-c2ccc(S(N)(=O)=O)cc2)cc1 [CELECOXIB]
Not Active: [1] | Histamine H2 receptor | [2] | [3]

CCCCc1nc(Cl)c(CO)n1Cc1ccc(-c2ccccc2-c2nnn[nH]2)cc1 [LOSARTAN]
Not Active: [1] | Carbonic anhydrase 2 | Histamine H2 receptor | [2] | [3]

CC(NC(C)(C)C)C(=O)c1cccc(Cl)c1 (stereo not drawn) [BUPROPION]
Not Active: [1] | Carbonic anhydrase 2 | Histamine H2 receptor | [2] | [3]

COc1cc2c3cc1Oc1cc(ccc1O)C[C@@H]1c4c(cc(OC)c(O)c4Oc4ccc(cc4)C[C@@H]3N(C)CC2)CC[N+]1(C)C.[Cl-]
Not Active: [1] | Carbonic anhydrase 2 | Histamine H2 receptor | [2] | [3]

CCC(C)n1ncn(-c2ccc(N3CCN(c4ccc(OCC5COC(Cn6cncn6)(c6ccc(Cl)cc6Cl)O5)cc4)CC3)cc2)c1=O (stereo not drawn) [ITRACONAZOLE]
Not Active: [1] | Carbonic anhydrase 2 | Histamine H2 receptor | [2] | [3]
